Data from ChEMBL document CHEMBL5113453, “Design, synthesis, and biological evaluation of a new series of pyrazole derivatives: Discovery of potent and selective JNK3 kinase inhibitors” (Bioorg Med Chem, 2022).

Columns and labels:
CCRF-CEM = experiment: Antiproliferative activity against human CCRF-CEM cells measured after 48 hrs by SRB assay; assay type: functional, cell-based
K562 = experiment: Antiproliferative activity against human K562 cells measured after 48 hrs by SRB assay; assay type: functional, cell-based
MOLT-4 = experiment: Antiproliferative activity against human MOLT-4 cells measured after 48 hrs by SRB assay; assay type: functional, cell-based
RPMI-8226 = experiment: Antiproliferative activity against human RPMI-8226 cells measured after 48 hrs by SRB assay; assay type: functional, cell-based
SR = experiment: Antiproliferative activity against human SR cells measured after 48 hrs by SRB assay; assay type: functional, cell-based
A549 = experiment: Antiproliferative activity against human A549 cells measured after 48 hrs by SRB assay; assay type: functional, cell-based
HOP-62 = experiment: Antiproliferative activity against human HOP-62 cells measured after 48 hrs by SRB assay; assay type: functional, cell-based
HOP-92 = experiment: Antiproliferative activity against human HOP-92 cells measured after 48 hrs by SRB assay; assay type: functional, cell-based
NCI-H226 = experiment: Antiproliferative activity against human NCI-H226 cells measured after 48 hrs by SRB assay; assay type: functional, cell-based
NCI-H23 = experiment: Antiproliferative activity against human NCI-H23 cells measured after 48 hrs by SRB assay; assay type: functional, cell-based
NCI-H522 = experiment: Antiproliferative activity against human NCI-H522 cells measured after 48 hrs by SRB assay; assay type: functional, cell-based
HCC 2998 = experiment: Antiproliferative activity against human HCC 2998 cells measured after 48 hrs by SRB assay; assay type: functional, cell-based
HCT-116 = experiment: Antiproliferative activity against human HCT-116 cells measured after 48 hrs by SRB assay; assay type: functional, cell-based
HCT-15 = experiment: Antiproliferative activity against human HCT-15 cells measured after 48 hrs by SRB assay; assay type: functional, cell-based
HT-29 = experiment: Antiproliferative activity against human HT-29 cells measured after 48 hrs by SRB assay; assay type: functional, cell-based
KM12 = experiment: Antiproliferative activity against human KM12 cells measured after 48 hrs by SRB assay; assay type: functional, cell-based
SW-620 = experiment: Antiproliferative activity against human SW-620 cells measured after 48 hrs by SRB assay; assay type: functional, cell-based
SF-268 = experiment: Antiproliferative activity against human SF-268 cells measured after 48 hrs by SRB assay; assay type: functional, cell-based
SF-539 = experiment: Antiproliferative activity against human SF-539 cells measured after 48 hrs by SRB assay; assay type: functional, cell-based
SNB-75 = experiment: Antiproliferative activity against human SNB-75 cells measured after 48 hrs by SRB assay; assay type: functional, cell-based
Malme-3M = experiment: Antiproliferative activity against human Malme-3M cells measured after 48 hrs by SRB assay; assay type: functional, cell-based
SK-MEL-2 = experiment: Antiproliferative activity against human SK-MEL-2 cells measured after 48 hrs by SRB assay; assay type: functional, cell-based
SK-MEL-28 = experiment: Antiproliferative activity against human SK-MEL-28 cells measured after 48 hrs by SRB assay; assay type: functional, cell-based
UACC-62 = experiment: Antiproliferative activity against human UACC-62 cells measured after 48 hrs by SRB assay; assay type: functional, cell-based
OVCAR-3 = experiment: Antiproliferative activity against human OVCAR-3 cells measured after 48 hrs by SRB assay; assay type: functional, cell-based
OVCAR-4 = experiment: Antiproliferative activity against human OVCAR-4 cells measured after 48 hrs by SRB assay; assay type: functional, cell-based
OVCAR-5 = experiment: Antiproliferative activity against human OVCAR-5 cells measured after 48 hrs by SRB assay; assay type: functional, cell-based
OVCAR-8 = experiment: Antiproliferative activity against human OVCAR-8 cells measured after 48 hrs by SRB assay; assay type: functional, cell-based
NCI/ADR-RES = experiment: Antiproliferative activity against human NCI-ADR-RES cells measured after 48 hrs by SRB assay; assay type: functional, cell-based
A498 = experiment: Antiproliferative activity against human A498 cells measured after 48 hrs by SRB assay; assay type: functional, cell-based
ACHN = experiment: Antiproliferative activity against human ACHN cells measured after 48 hrs by SRB assay; assay type: functional, cell-based
RXF 393 = experiment: Antiproliferative activity against human RXF 393 cells measured after 48 hrs by SRB assay; assay type: functional, cell-based
SN12C = experiment: Antiproliferative activity against human SN12C cells measured after 48 hrs by SRB assay; assay type: functional, cell-based
UO-31 = experiment: Antiproliferative activity against human UO-31 cells measured after 48 hrs by SRB assay; assay type: functional, cell-based
PC-3 = experiment: Antiproliferative activity against human PC-3 cells measured after 48 hrs by SRB assay; assay type: functional, cell-based
DU-145 = experiment: Antiproliferative activity against human DU-145 cells measured after 48 hrs by SRB assay; assay type: functional, cell-based
MDA-MB-468 = experiment: Antiproliferative activity against human MDA-MB-468 cells measured after 48 hrs by SRB assay; assay type: functional, cell-based
WI-38 = experiment: Antiproliferative activity against human WI-38 cells measured by MTT assay; assay type: functional, cell-based
[1] = target: Mitogen-activated protein kinase 10 (Homo sapiens, UniProt P53779); experiment: Inhibition of JNK3 (unknown origin) at 1 uM relative to control
Sequence of Mitogen-activated protein kinase 10 (P53779 whole entry): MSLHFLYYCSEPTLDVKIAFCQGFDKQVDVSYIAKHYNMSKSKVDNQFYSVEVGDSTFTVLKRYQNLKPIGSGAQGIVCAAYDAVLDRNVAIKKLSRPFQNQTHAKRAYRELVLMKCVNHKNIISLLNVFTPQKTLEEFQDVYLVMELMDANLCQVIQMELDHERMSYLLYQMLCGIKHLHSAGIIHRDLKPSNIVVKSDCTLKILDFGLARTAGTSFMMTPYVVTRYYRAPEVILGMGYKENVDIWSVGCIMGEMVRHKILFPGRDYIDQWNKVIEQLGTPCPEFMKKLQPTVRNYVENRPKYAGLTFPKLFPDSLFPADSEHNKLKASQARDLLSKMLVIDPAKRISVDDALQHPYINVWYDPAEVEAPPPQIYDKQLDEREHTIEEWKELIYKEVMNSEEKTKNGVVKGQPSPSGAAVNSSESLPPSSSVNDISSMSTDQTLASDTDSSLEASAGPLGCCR

## O=C(Nc1ccc(Cl)c(C(F)(F)F)c1)N1CCN(c2cc(-c3cn(-c4ccccc4)nc3-c3cccc(O)c3)ccn2)CC1
CCRF-CEM; 48 h
  IC50: 1.59 µM
CCRF-CEM; time 48 hrs
  TGI: 9.71 µM
K562; K562, 48 h
  IC50: 2.13 µM
K562; K562, time 48 hrs
  TGI: > 22 µM
MOLT-4; MOLT-4, 48 h
  IC50: 0.93 µM
MOLT-4; MOLT-4, time 48 hrs
  TGI: 7.58 µM
RPMI-8226; RPMI-8226, 48 h
  IC50: 1.21 µM
RPMI-8226; RPMI-8226, time 48 hrs
  TGI: 11.8 µM
SR; 48 h
  IC50: 3.07 µM
SR; time 48 hrs
  TGI: > 22 µM
A549; A549, 48 h
  IC50: 4.34 µM
A549; A549, time 48 hrs
  TGI: > 22 µM
HOP-62; HOP-62, 48 h
  IC50: 6.28 µM
HOP-62; HOP-62, time 48 hrs
  TGI: > 22 µM
HOP-92; HOP-92, 48 h
  IC50: 2.59 µM
HOP-92; HOP-92, time 48 hrs
  TGI: 15.9 µM
NCI-H226; NCI-H226, 48 h
  IC50: 3.22 µM
NCI-H226; NCI-H226, time 48 hrs
  TGI: 15.8 µM
NCI-H23; NCI-H23, 48 h
  IC50: 3.69 µM
NCI-H23; NCI-H23, time 48 hrs
  TGI: 14.9 µM
NCI-H522; NCI-H522, 48 h
  IC50: 2.77 µM
NCI-H522; NCI-H522, time 48 hrs
  TGI: 9.26 µM
HCC 2998; HCC 2998, 48 h
  IC50: 6.1 µM
HCC 2998; HCC 2998, time 48 hrs
  TGI: > 22 µM
HCT-116; HCT-116, 48 h
  IC50: 1.86 µM
HCT-116; HCT-116, time 48 hrs
  TGI: > 22 µM
HCT-15; HCT-15, 48 h
  IC50: 2.84 µM
HCT-15; HCT-15, time 48 hrs
  TGI: > 22 µM
HT-29; HT-29, 48 h
  IC50: 4.1 µM
HT-29; HT-29, time 48 hrs
  TGI: > 22 µM
KM12; KM12, 48 h
  IC50: 3.34 µM
KM12; KM12, time 48 hrs
  TGI: 15.2 µM
SW-620; SW-620, 48 h
  IC50: 4.78 µM
SW-620; SW-620, time 48 hrs
  TGI: > 22 µM
SF-268; SF-268, 48 h
  IC50: 3.3 µM
SF-268; SF-268, time 48 hrs
  TGI: > 22 µM
SF-539; SF-539, 48 h
  IC50: 4.21 µM
SF-539; SF-539, time 48 hrs
  TGI: > 22 µM
SNB-75; SNB-75, 48 h
  IC50: 0.63 µM
SNB-75; SNB-75, time 48 hrs
  TGI: 11.1 µM
Malme-3M; 48 h
  IC50: 3.3 µM
Malme-3M; time 48 hrs
  TGI: 8.95 µM
SK-MEL-2; SK-MEL-2, 48 h
  IC50: 3.54 µM
SK-MEL-2; SK-MEL-2, time 48 hrs
  TGI: 7.57 µM
SK-MEL-28; SK-MEL-28, 48 h
  IC50: 3.41 µM
SK-MEL-28; SK-MEL-28, time 48 hrs
  TGI: 10.3 µM
UACC-62; UACC-62, 48 h
  IC50: 2.68 µM
UACC-62; UACC-62, time 48 hrs
  TGI: 5.77 µM
OVCAR-3; OVCAR-3, 48 h
  IC50: 1.76 µM
OVCAR-3; OVCAR-3, time 48 hrs
  TGI: 11.5 µM
OVCAR-4; OVCAR-4, 48 h
  IC50: 2.02 µM
OVCAR-4; OVCAR-4, time 48 hrs
  TGI: > 22 µM
OVCAR-5; OVCAR-5, 48 h
  IC50: 4.13 µM
OVCAR-5; OVCAR-5, time 48 hrs
  TGI: 10.5 µM
OVCAR-8; OVCAR-8, 48 h
  IC50: 4.72 µM
OVCAR-8; OVCAR-8, time 48 hrs
  TGI: > 22 µM
NCI/ADR-RES; 48 h
  IC50: 2.91 µM
NCI/ADR-RES; time 48 hrs
  TGI: 11.9 µM
A498; A498, 48 h
  IC50: 4.72 µM
A498; A498, time 48 hrs
  TGI: 21 µM
ACHN; 48 h
  IC50: 3 µM
ACHN; time 48 hrs
  TGI: 17 µM
RXF 393; RXF 393, 48 h
  IC50: 2.42 µM
RXF 393; RXF 393, time 48 hrs
  TGI: 9.79 µM
SN12C; 48 h
  IC50: 3.21 µM
SN12C; time 48 hrs
  TGI: > 22 µM
UO-31; UO-31, 48 h
  IC50: 3 µM
UO-31; UO-31, time 48 hrs
  TGI: > 22 µM
PC-3; PC-3, 48 h
  IC50: 0.97 µM
PC-3; PC-3, time 48 hrs
  TGI: 17 µM
DU-145; DU-145, 48 h
  IC50: 7.15 µM
DU-145; DU-145, time 48 hrs
  TGI: > 22 µM
MDA-MB-468; MDA-MB-468, 48 h
  IC50: 1.03 µM
MDA-MB-468; MDA-MB-468, time 48 hrs
  TGI: 7.22 µM
WI-38
  IC50: > 20 µM
[1]
  inhibition: 14%
